# Assay results as given in US11246893B2, “Bacteriocin production, compositions and methods of use” (ISOThrive Inc., priority 2016, dated 2022).
# Columns and labels:
# [1] = test system: Weissella viridescens NRRL B-1951; assay: tube assay, W. viridescens growth with nisin A or Z (absorbance); type: cell-based; details: 15 Hr
# Method: 100 g De-Man, Rogosa and Sharpe (MRS) media was prepared in a 500 mL Erlenmeyer to contain 5.5% solids in deionized water (18.2 MΩ, Hydro Service and Supplies. Gaithersburg, Md.). The media was autoclaved (121° C. 15 min), cooled, and inoculated with 1 mL (0.5 mL culture+0.5 mL glycerol, 40%; frozen at −78° C.) of Weissella viridescens NRRL B-1951 (test strain). The culture was incubated at 31° C. overnight (15 Hr).
# The next day, stock solutions of either nisin A or Z were prepared in deionized water to contain 31.3 and 33.7 μg/g of each peptide.
# 100 g MRS media was prepared to contain 5.5% solids. Two sets (one set each for nisin A and nisin Z) of eight Hach-type tubes (Kimble Chase 45066-16100) were prepared. Within each set, in order was added 5.00, 4.95, 4.90, 4.75, 4.50, 4.00, 3.50 and 3.00 g MRS media. The tubes were sealed and autoclaved.
# To each tube was added, of the appropriate nisin stock, 0.00, 0.05, 0.10, 0.25, 0.50, 1.00, 1.50, and 2.00 g. Each tube was inoculated with 0.25 g of late-log W. viridescens NRRL B-1951 culture. The tubes were sealed and the absorbance at 600 nm was quickly measured (Hach DR900). The tubes were segregated by set and incubated at 31° C. overnight (15 Hr).
# Each tube was thoroughly mixed to suspend settled cells and the absorbance was measured again at 600 nm. The final absorbance values for each sample were corrected for their respective background (taken just after inoculation, scattered light from added cells). The corrected absorption values were a measure of W. viridescens growth.
# As indicated above, the absorbance of the culture was measured again at 600 nm as a measure of W. viridescens growth, and the absorbance values for each sample were corrected for their respective background. These corrected absorption values plotted against nisin concentration and minimum inhibiting concentration approximated via regression.
# The results were fit via four parameter logistic regression (4PLR), combined into a continuous function with a second assay set (0.65-9.99 μg/g), and are shown in FIG. 11A.
# [2] = test system: Weissella viridescens NRRL B-1951; assay: HPLC of tube supernatants: glucose consumption and organic acid production; type: cell-based; details: for acetic acid in fermentation media: MRS media originally contained 7% acetate
# Method: Each tube was sampled (1.5 mL conical polypropylene centrifuge tubes) and centrifuged at 10 kRPM for 10 minutes to remove and suspended cells. The resulting supernatants were filtered (0.2 μm nylon), diluted to 0.5% solids, and analyzed by high pressure liquid chromatography (HPLC, Agilent 1100, refractive index detector and BioRad Ainex HPX-87H column) for consumption of glucose and production of organic acids.
# Note that the MRS media originally contained 7% acetate; therefore 7% should be subtracted from the values for acetate in Table 8 to ascertain the amount of acetate generated during the assay.
# head/neck tumors = details: mouse, in vivo; cited from earlier work
sequence,measurement,setting,value
MSTKDFNLDLVSVSKKDSGASPRITSISLCTPGCKTGALMGCNMKTATCNCSIHVSN [nisin Z],91516 ABS 610f,"[1]; tube Z2, nisin Z 0.34 μg/g",1.618
same,Corrected ABS 610rs,"[1]; tube Z2, nisin Z 0.34 μg/g",1.146
same,91516 ABS 610f,"[1]; tube Z3, nisin Z 0.77 μg/g",1.526
same,Corrected ABS 610rs,"[1]; tube Z3, nisin Z 0.77 μg/g",1.062
same,91516 ABS 610f,"[1]; tube Z4, nisin Z 1.58 μg/g",1.296
same,Corrected ABS 610rs,"[1]; tube Z4, nisin Z 1.58 μg/g",0.841
same,91516 ABS 610f,"[1]; tube Z5, nisin Z 3.19 μg/g",0.801
same,Corrected ABS 610rs,"[1]; tube Z5, nisin Z 3.19 μg/g",0.359
same,91516 ABS 610f,"[1]; tube Z6, nisin Z 6.31 μg/g",0.426
same,Corrected ABS 610rs,"[1]; tube Z6, nisin Z 6.31 μg/g",0.003
same,91516 ABS 610f,"[1]; tube Z7, nisin Z 9.54 μg/g",0.384
same,Corrected ABS 610rs,"[1]; tube Z7, nisin Z 9.54 μg/g",0.001
same,91516 ABS 610f,"[1]; tube Z8, nisin Z 12.61 μg/g",0.386
same,Corrected ABS 610rs,"[1]; tube Z8, nisin Z 12.61 μg/g",0.001
same,Maltotriose in fermentation media,"[2]; tube Z2, nisin Z 0.34 μg/g",0.282 %/brix
same,ethanol in fermentation media,"[2]; tube Z2, nisin Z 0.34 μg/g",0.057 %/brix
same,formic acid in fermentation media,"[2]; tube Z2, nisin Z 0.34 μg/g",0.303 %/brix
same,fructose in fermentation media,"[2]; tube Z2, nisin Z 0.34 μg/g",0.000 %/brix
same,glucose in fermentation media,"[2]; tube Z2, nisin Z 0.34 μg/g",22.988 %/brix
same,glycerol in fermentation media,"[2]; tube Z2, nisin Z 0.34 μg/g",0.343 %/brix
same,lactic acid in fermentation media,"[2]; tube Z2, nisin Z 0.34 μg/g",6.742 %/brix
same,maltose in fermentation media,"[2]; tube Z2, nisin Z 0.34 μg/g",0.722 %/brix
same,acetic acid in fermentation media,"[2]; tube Z2, nisin Z 0.34 μg/g",8.273 %/brix
same,Maltotriose in fermentation media,"[2]; tube Z4, nisin Z 1.58 μg/g",0.265 %/brix
same,ethanol in fermentation media,"[2]; tube Z4, nisin Z 1.58 μg/g",0.083 %/brix
same,formic acid in fermentation media,"[2]; tube Z4, nisin Z 1.58 μg/g",0.309 %/brix
same,fructose in fermentation media,"[2]; tube Z4, nisin Z 1.58 μg/g",0.000 %/brix
same,glucose in fermentation media,"[2]; tube Z4, nisin Z 1.58 μg/g",24.153 %/brix
same,glycerol in fermentation media,"[2]; tube Z4, nisin Z 1.58 μg/g",0.337 %/brix
same,lactic acid in fermentation media,"[2]; tube Z4, nisin Z 1.58 μg/g",5.081 %/brix
same,maltose in fermentation media,"[2]; tube Z4, nisin Z 1.58 μg/g",1.007 %/brix
same,acetic acid in fermentation media,"[2]; tube Z4, nisin Z 1.58 μg/g",8.247 %/brix
same,Maltotriose in fermentation media,"[2]; tube Z5, nisin Z 3.19 μg/g",0.311 %/brix
same,ethanol in fermentation media,"[2]; tube Z5, nisin Z 3.19 μg/g",0.067 %/brix
same,formic acid in fermentation media,"[2]; tube Z5, nisin Z 3.19 μg/g",0.281 %/brix
same,fructose in fermentation media,"[2]; tube Z5, nisin Z 3.19 μg/g",0.000 %/brix
same,glucose in fermentation media,"[2]; tube Z5, nisin Z 3.19 μg/g",24.698 %/brix
same,glycerol in fermentation media,"[2]; tube Z5, nisin Z 3.19 μg/g",0.321 %/brix
same,lactic acid in fermentation media,"[2]; tube Z5, nisin Z 3.19 μg/g",2.995 %/brix
same,maltose in fermentation media,"[2]; tube Z5, nisin Z 3.19 μg/g",0.750 %/brix
same,acetic acid in fermentation media,"[2]; tube Z5, nisin Z 3.19 μg/g",8.026 %/brix
same,Maltotriose in fermentation media,"[2]; tube Z6, nisin Z 6.31 μg/g",0.247 %/brix
same,ethanol in fermentation media,"[2]; tube Z6, nisin Z 6.31 μg/g",0.059 %/brix
same,formic acid in fermentation media,"[2]; tube Z6, nisin Z 6.31 μg/g",0.267 %/brix
same,fructose in fermentation media,"[2]; tube Z6, nisin Z 6.31 μg/g",0.000 %/brix
same,glucose in fermentation media,"[2]; tube Z6, nisin Z 6.31 μg/g",25.353 %/brix
same,glycerol in fermentation media,"[2]; tube Z6, nisin Z 6.31 μg/g",0.320 %/brix
same,lactic acid in fermentation media,"[2]; tube Z6, nisin Z 6.31 μg/g",1.351 %/brix
same,maltose in fermentation media,"[2]; tube Z6, nisin Z 6.31 μg/g",0.726 %/brix
same,acetic acid in fermentation media,"[2]; tube Z6, nisin Z 6.31 μg/g",7.969 %/brix
same,Maltotriose in fermentation media,"[2]; tube Z7, nisin Z 9.54 μg/g",0.291 %/brix
same,ethanol in fermentation media,"[2]; tube Z7, nisin Z 9.54 μg/g",0.065 %/brix
same,formic acid in fermentation media,"[2]; tube Z7, nisin Z 9.54 μg/g",0.263 %/brix
same,fructose in fermentation media,"[2]; tube Z7, nisin Z 9.54 μg/g",0.000 %/brix
same,glucose in fermentation media,"[2]; tube Z7, nisin Z 9.54 μg/g",25.501 %/brix
same,glycerol in fermentation media,"[2]; tube Z7, nisin Z 9.54 μg/g",0.335 %/brix
same,lactic acid in fermentation media,"[2]; tube Z7, nisin Z 9.54 μg/g",1.431 %/brix
same,maltose in fermentation media,"[2]; tube Z7, nisin Z 9.54 μg/g",0.895 %/brix
same,acetic acid in fermentation media,"[2]; tube Z7, nisin Z 9.54 μg/g",8.026 %/brix
same,Maltotriose in fermentation media,"[2]; tube Z8, nisin Z 12.61 μg/g",0.318 %/brix
same,ethanol in fermentation media,"[2]; tube Z8, nisin Z 12.61 μg/g",0.148 %/brix
same,formic acid in fermentation media,"[2]; tube Z8, nisin Z 12.61 μg/g",0.299 %/brix
same,fructose in fermentation media,"[2]; tube Z8, nisin Z 12.61 μg/g",0.000 %/brix
same,glucose in fermentation media,"[2]; tube Z8, nisin Z 12.61 μg/g",25.740 %/brix
same,glycerol in fermentation media,"[2]; tube Z8, nisin Z 12.61 μg/g",0.346 %/brix
same,lactic acid in fermentation media,"[2]; tube Z8, nisin Z 12.61 μg/g",1.652 %/brix
same,maltose in fermentation media,"[2]; tube Z8, nisin Z 12.61 μg/g",0.876 %/brix
same,acetic acid in fermentation media,"[2]; tube Z8, nisin Z 12.61 μg/g",8.261 %/brix
same,effect on tumors (in words),head/neck tumors,can reduce tumorigenesis in mice
